“And” between values parts separate entries of the source, which are not always exact repeats. Equal entries are not always repeated. “Also recorded” adds a separate entry of the source. Where two headings read alike, the source gives them in different places. Marks after values point to notes of the source that are not given here.
Columns and labels:
anti-Chlamydia abzymes [1] = format: biochemical, human
anti-Chlamydia abzymes [2] = format: biochemical, human; design: key to In-vitro Inhibition: + = inhibition; − = no inhibition; details: for In-vitro Inhibition: abzyme activity, metal chelators; for Anti-Abzyme activity: control 21.7
lesion IgG = format: biochemical, human
anti-Chlamydia abzymes [3] = format: in vivo, human; details: for Anti-Chlamydia abzyme activity: individual patients (last line: mean); for Anti-Chlamydia abzymes activity: Table 27 group summary; for individuals positive for abzymes / individuals positive for abzymes (fraction) / abzyme activity of individuals reporting taking aspirin: + aspirin
anti-Chlamydia IgG = format: in vivo, human; details: immuno-fluorescent assay, group summary
[4] = tested on: patients with ischaemic heart disease; assay: Severity of angina pectoris by modified Rose-Blackburn Questionnaire; format: in vivo, human; design: Score by modified Rose-Blackburn Questionnaire / Rose Blackthorn Score Day 0: scale not given here; details: for Score by modified Rose-Blackburn Questionnaire: individual patients (last line of each group: mean)
Text: The progression of the clinical condition of the patients was monitored by the use of the modified Bruce Protocol for treadmill exercise/stress ECG testing and on the Rose-Blackburn Questionnaire (Cardiovascular Survey Methods. WHO, Geneva, 1968).

patients with angina = assay: Clinical condition of angina patients treated with anti-microbial agent; format: in vivo, human; details: for Clinical condition: individual patients; for tablets of nitroglycerine daily: patient 5
[5] = human, in vivo
[6] = IHD patients negative for anti-Chlamydia IgG, individual patients
[7] = Chlamydia treated with 1% detergents or 10% solution of DMSO

In the case of “polyoxyethylene Octyl phenyl ether [TRITON X-100]”, the “development of lipid oxidation reaction” value (anti-Chlamydia abzymes [1]) is reported as “completely abrogated” and the “oxidation of the lipids in the bacteria by the extracted abzymes” value (anti-Chlamydia abzymes [1]) is reported as “abolished”.
With CC(C)(S)[C@@H](N)C(=O)O [Penicillamine] the “Result (inhibition of abzymes)” value (anti-Chlamydia abzymes [2]; 10 μM of each agent) was “Positive” and the “In-vitro Inhibition” value (anti-Chlamydia abzymes [2]) was “+”.
With [N-]=[N+]=[N-].[Na+] [NaN3] the “Result (inhibition of abzymes)” value (anti-Chlamydia abzymes [2]) was “Positive”.
Compound O=[N+]([O-])OCC(CO[N+](=O)[O-])O[N+](=O)[O-] [Glyceryl Trinitrate] has an Anti-Abzyme activity (anti-Chlamydia abzymes [2]; 4.4 μM) of 0 μM MDA/ml, an Anti-Abzyme activity (anti-Chlamydia abzymes [2]; 22 μM) of 0 μM MDA/ml and an Anti-Abzyme activity (anti-Chlamydia abzymes [2]; 44 μM) of 0 μM MDA/ml. For the same compound, the Anti-Abzyme activity (anti-Chlamydia abzymes [2]; 220 μM) was 0 μM MDA/ml.
For N.N.O=S(=O)(O)O [ammonium sulphate], the “lipid oxidising reaction in the test system” value (“lipid oxidising reaction” below) (anti-Chlamydia abzymes [1]) was “no lipid oxidising reaction”.
Compound O=[N+]([O-])O[C@H]1CO[C@H]2[C@@H]1OC[C@H]2O[N+](=O)[O-] [Isosorbide Dinitrate] has an Anti-Abzyme activity (anti-Chlamydia abzymes [2]; 42 μM) of 0 μM MDA/ml and an Anti-Abzyme activity (anti-Chlamydia abzymes [2]; 211 μM) of 0 μM MDA/ml.
For O=C(O)c1ccccc1 [benzoic acid], the “Level of MDA production by 0.82 μg of lesion IgG” value (from here on “Level of MDA production”) (lesion IgG) was 0 µM.
For CC[C@H]1OC(=O)[C@H](C)[C@@H](O[C@H]2C[C@@](C)(OC)[C@@H](O)[C@H](C)O2)[C@H](C)[C@@H](O[C@@H]2O[C@H](C)C[C@H](N(C)C)[C@H]2O)[C@](C)(O)C[C@@H](C)CN(C)[C@H](C)[C@@H](O)[C@]1(C)O [Azithromycin], the “Abzyme activity Day 0” value (anti-Chlamydia abzymes [3]; [6]) was 15 and 90 and 80 and 40, the “Abzyme activity Day 60” value (anti-Chlamydia abzymes [3]; [6]) was 6.7 (2×) and 3.3 and 0 and the Anti-Chlamydia abzyme activity (anti-Chlamydia abzymes [3]; Table 15, 15 days after the start of the treatment) was 60 μM MDA/ml and 0 μM MDA/ml (3×) and 8.3 μM MDA/ml and 6.7 μM MDA/ml (3×) and 33 μM MDA/ml and 75 μM MDA/ml and 19.6 μM MDA/ml. The Anti-Chlamydia abzyme activity (anti-Chlamydia abzymes [3]; Table 15, 30 days after the start of the treatment) was 37 μM MDA/ml and 0 μM MDA/ml (3×) and 28 μM MDA/ml and 3.3 μM MDA/ml (2×) and 10 μM MDA/ml and 78 μM MDA/ml and 17.7 μM MDA/ml, the Anti-Chlamydia abzyme activity (anti-Chlamydia abzymes [3]; Table 15, stable angina, 500 mg once per day, before treatment) was 40 μM MDA/ml (2×) and 50 μM MDA/ml and 15 μM MDA/ml and 10 μM MDA/ml and 35 μM MDA/ml and 85 μM MDA/ml and 30 μM MDA/ml (2×) and 45.9 μM MDA/ml and 90 μM MDA/ml and 80 μM MDA/ml and the Anti-Chlamydia abzymes activity (anti-Chlamydia abzymes [3]; 60 days after treatment) was 1.6 ± 0.89 ^ μM/MDA/ml. For the same compound, the Anti-Chlamydia abzymes activity (anti-Chlamydia abzymes [3]; before treatment) was 47.5 ± 8.96 μM/MDA/ml, the Anti-Chlamydia abzyme activity (anti-Chlamydia abzymes [3]; Therapy Group A, IHD, 500 mg daily, before treatment) was 90 μM MDA/ml and 80 μM MDA/ml and 40 μM MDA/ml (2×) and 50 μM MDA/ml and 15 μM MDA/ml and 28 μM MDA/ml and 35 μM MDA/ml and 85 μM MDA/ml and 30 μM MDA/ml (2×) and 47.5 μM MDA/ml and the Anti-Chlamydia abzyme activity (anti-Chlamydia abzymes [3]; Therapy Group A, 15 days after the start of treatment) was 6.7 μM MDA/ml (3×) and 0 μM MDA/ml (3×) and 60* μM MDA/ml and 8.3 μM MDA/ml and 33 μM MDA/ml and 75* μM MDA/ml and 52* μM MDA/ml and 22.5 μM MDA/ml. For the same compound, the Anti-Chlamydia abzyme activity (anti-Chlamydia abzymes [3]; Therapy Group A, 30 days after the start of treatment) was 78** μM MDA/ml and 0 μM MDA/ml (3×) and 37* μM MDA/ml and 28** μM MDA/ml and 3.3 μM MDA/ml (2×) and 10 μM MDA/ml (2×) and 78* μM MDA/ml and 22.5 μM MDA/ml, the Anti-Chlamydia abzyme activity (anti-Chlamydia abzymes [3]; Therapy Group A, 45 days after the start of treatment) was 17 μM MDA/ml and 0 μM MDA/ml (5×) and 20* μM MDA/ml and 43* μM MDA/ml and 3.3 μM MDA/ml (2×) and 5.0 μM MDA/ml and 7.4 μM MDA/ml and the Anti-Chlamydia abzyme activity (anti-Chlamydia abzymes [3]; Therapy Group A, 60 days after the start of treatment) was 3.3 μM MDA/ml and 6.7 μM MDA/ml (2×) and 0 μM MDA/ml (7×) and 0.5 μM MDA/ml and 1.6 μM MDA/ml. For the same compound, the “Anti-Chlamydia IgG” value (anti-Chlamydia IgG; 60 days after treatment) was 0 (titers)^−1, the “Anti-Chlamydia IgG” value (anti-Chlamydia IgG; before treatment) was 43.6 (titers)^−1 and the “Rose Blackthorn Score Day 0” value [4, 6] was 21 and 22 and 12 and 19. The “Clinical Status modified Rose G., Blackburn H. Questionnaire” value ([4]; group summary, before treatment) was 19.4 ± 1.79, the “Score by modified Rose-Blackburn Questionnaire” value ([4]; 60 days after start of the treatment) was 19 and 10 and 13 and 16 and 18 and 15 (2×) and 8 and 11 and 17 (2×) and the “Score by modified Rose-Blackburn Questionnaire” value ([4]; before treatment) was 22 and 12 and 19 and 23 and 21 and 25 (3×) and 16 and 10 and 15 and 19.4 ± 1.79. The Clinical condition (patients with angina; after 15 days of treatment) was “angina class II;; also recorded: Stable condition;”, the Clinical condition (patients with angina; before treatment) was “angina class III;; also recorded: Unstable angina;” and the “tablets of nitroglycerine daily” value (patients with angina; after 15 days of treatment) was 5 tablets of nitroglycerine. For the same compound, the “tablets of nitroglycerine daily” value (patients with angina; before treatment) was 10 tablets of and the adverse reactions [5] was “No adverse reactions”.
With C[S+](C)[O-] [DMSO] the “Level of MDA production” value (lesion IgG; LDL 480 μg of protein, +1% agent, control 0.49 ± 0.023) was 0 µM and the “development of lipid oxidation reaction” value (anti-Chlamydia abzymes [1]; [7]) was “completely abrogated”.
For O=C(O)c1ccccn1 [Picolinic acid], the “Result (inhibition of abzymes)” value (anti-Chlamydia abzymes [2]; 10 μM of each agent) was “Positive” and the “In-vitro Inhibition” value (anti-Chlamydia abzymes [2]) was “+”.
With O=C[O-].[Na+] [sodium formate] the “Level of MDA production” value (lesion IgG; LDL 480 μg of protein, +0.1 M agent, control 0.49 ± 0.023) was 0 µM.
In the case of C=O [formalin], the “lipid oxidising reaction” value (anti-Chlamydia abzymes [1]) is reported as “no lipid oxidising reaction”.
For O=C(O)CN(CCN(CC(=O)O)CC(=O)O)CCN(CC(=O)O)CC(=O)O [DTPA], the “Result (inhibition of abzymes)” value (anti-Chlamydia abzymes [2]; 10 μM of each agent) was “Negative” and the “In-vitro Inhibition” value (anti-Chlamydia abzymes [2]) was “−”.
With CCCCCCCCCCCCOS(=O)(=O)[O-].[Na+] [SDS] the “lipid oxidising reaction” value (anti-Chlamydia abzymes [1]) was “no lipid oxidising reaction”.
With “octylphenoxypoly(ethyleneoxy)ethanol [IGEPAL CA-630]” the “development of lipid oxidation reaction” value (anti-Chlamydia abzymes [1]; [7]) was “completely abrogated” and the “oxidation of the lipids in the bacteria by the extracted abzymes” value (anti-Chlamydia abzymes [1]; Chlamydia treated with non-ionic detergent) was “abolished”.
In the case of CC(=O)Oc1ccccc1C(=O)O [Aspirin, acetylsalicylic acid], the “Result (inhibition of abzymes)” value (anti-Chlamydia abzymes [2]; 10 μM of each agent) is reported as “Positive”, the “In-vitro Inhibition” value (anti-Chlamydia abzymes [2]) is reported as “+” and the Anti-Chlamydia abzyme activity (anti-Chlamydia abzymes [3]; Therapy Group D, IHD, aspirin 250 mg daily, before treatment) is reported as 103 μM MDA/ml and 253 μM MDA/ml and 178 μM MDA/ml. For the same compound, the Anti-Chlamydia abzyme activity (anti-Chlamydia abzymes [3]; Therapy Group D, 60 days after the start of treatment) was 63 μM MDA/ml and 103 μM MDA/ml and 83.2 μM MDA/ml, the “Level of activity of anti-Chlamydia abzymes” value (anti-Chlamydia abzymes [3]; individual CHD patients, 7 days after starting to take 250 mg of aspirin daily) was “undetectably low level and 20 μM MDA/ml and 0 μM MDA/ml” and the “Level of activity of anti-Chlamydia abzymes” value (anti-Chlamydia abzymes [3]; individual CHD patients, before taking aspirin) was 100 μM MDA/ml and 45 μM MDA/ml (2×). For the same compound, the “inhibition of the abzyme activity” value (anti-Chlamydia abzymes [3]; one CHD patient, after a week of 250 mg daily) was 5 fold, the “Level of activity of anti-Chlamydia abzymes” value (anti-Chlamydia abzymes [3]; patient F, Silent Myocardial Ischaemia, aspirin intake 250 mg daily) was 10 μM MDA/ml and the “Level of activity of anti-Chlamydia abzymes” value (anti-Chlamydia abzymes [3]; patient F, 7 days after re-starting to take 250 mg aspirin daily) was 20 μM MDA/ml. The “Level of activity of anti-Chlamydia abzymes” value (anti-Chlamydia abzymes [3]; patient F, after stopping taking aspirin for 7 days) was 65 μM MDA/ml, the “individuals positive for abzymes” value (anti-Chlamydia abzymes [3]; stable angina class I) was 17% and the “individuals positive for abzymes (fraction)” value (anti-Chlamydia abzymes [3]; stable angina class I) was 1/6. For the same compound, the “abzyme activity of individuals reporting taking aspirin” value (anti-Chlamydia abzymes [3]; stable angina class I, individuals (r25: mean, n = 6)) was 0 (3×) and 10 and 10.0 and 5 and 45, the “individuals positive for abzymes” value (anti-Chlamydia abzymes [3]; stable angina class II) was 27% and the “individuals positive for abzymes (fraction)” value (anti-Chlamydia abzymes [3]; stable angina class II) was 4/15. The “abzyme activity of individuals reporting taking aspirin” value (anti-Chlamydia abzymes [3]; stable angina class II, individuals (r25: mean, n = 15)) was 10 (2×) and 0 (4×) and 5 (4×) and 25 and 22.5 and 3.3 and 16.7 and 9.2 and 30, the “individuals positive for abzymes” value (anti-Chlamydia abzymes [3]; stable angina class III) was 60% and the “individuals positive for abzymes (fraction)” value (anti-Chlamydia abzymes [3]; stable angina class III) was 6/10. The “abzyme activity of individuals reporting taking aspirin” value (anti-Chlamydia abzymes [3]; stable angina class III, individuals (r25: mean, n = 10)) was 0 (3×) and 5 and 35 and 15 and 30 and 105 and 25.5 and 20 and 45, the “individuals positive for abzymes” value (anti-Chlamydia abzymes [3]; unstable angina IV) was 86% and the “individuals positive for abzymes (fraction)” value (anti-Chlamydia abzymes [3]; unstable angina IV) was 6/7. For the same compound, the “abzyme activity of individuals reporting taking aspirin” value (anti-Chlamydia abzymes [3]; unstable angina IV, individuals (r25: mean, n = 7)) was 0 and 37 and 90 and 100 and 86.7 and 180 and 130 and 70.
